Consider one compound from US12612358B2, “Resorcinol-based compounds and uses thereof” (priority 2020, dated 2026).

SMILES strings stand for the structures.

In data set [1] the test system is U251 (glioblastoma). Put plainly: Cell proliferation, U251 glioblastoma cells. The format is cell-based. As to conditions: Homo sapiens, U-251, read-out: IC50 category. From the text:
Effects of Compound-5B on cell proliferation in additional cancer cells: To determine whether Compound-5B would have broad based anticancer activity, we study whether Compound-5B would be effective at inhibiting cell proliferation in a variety of cancers overexpressing Id-1. The assay conditions used were identical to those presented for breast and pancreatic cancers. Indeed, Compound-5B was potent at inhibiting cell proliferation in blood cancer (leukemia), glioblastoma, prostate, and ovarian cancer.

For data set [2], the system named is Id-1. Kind of data set: Id-1 expression in PANC-1 cells (Western analysis). The format is cell-based, human. The procedure: Quantitative Western analysis: Cells are cultured and treated in 6-well dishes. After the cells are washed twice with cold PBS, lysis buffer is added. The cells are then lysed by freezing for 10 min at −70° C. and then thawing at ambient temperature. The cell lysate is collected and the protein content is determined by using Bradford reagent. Equal amounts of protein are heated at 90° C. in Laemmli sample buffer which also included β-mercaptoethanol. The samples are then loaded onto a precast SDS-PAGE gel (Bio-Rad Laboratories, Hercules, CA). After which, proteins are then electroblotted onto an Immobilon membrane (Millipore, Billerica, MA) overnight at 2-4° C. The membrane is then blocked for 1 hour with 5% nonfat dry milk which included TBS+Tween. The membranes are then incubated with an anti-Id-1 primary antibody, and then an appropriate secondary antibody was used. Blots are incubated for 45 min and then washed 4 times with TBS+Tween for 15 min each. The blots are developed with SuperSignal Femto (Pierce, Rockford, IL), and imaged on either a Fluorchem 8900 (Alpha Innotech, San Leandro, CA) or ECL Hyperfilm (Amersham-Pharmacia, Piscataway, NJ). Band intensity values are obtained (after background subtraction) directly from the […] using AlphaeaseFC software (San Leandro, CA) or from film using Image-J (NIH, MD). […]

Data set [3] has as its target T1, CYP2C9 (Homo sapiens, UniProt P11712).
T1 construct: purchased Eurofins
Kind of data set: CYP2C9 inhibition. Format: in vitro ADME. Conditions: 10 μM. The procedure:
(§1) Evaluating ADME of Compound-5B in vitro. It is important to evaluate ADME first in culture as it allows for the selection of the best candidate for PK analysis in vivo. ADME analysis of Compound-5B was performed by Eurofins.

Data set [4] concerns BXPC-3. Kind of data set: CellTiter-Glo cell proliferation, BxPC-3 pancreatic cancer cells. Format: cell-based. As to conditions: Homo sapiens, read-out: IC50 category. From the text:
Cell culture and treatment of pancreatic cancer cell lines: Pancreatic cancer cells lines BxPC-3, SW1990, and PANC-1 used in the experiments presented herein can be obtained from ATCC. The cells can be cultured and passaged in complete growth medium (RPMI-1640, Dulbecco's Modified Eagle Medium, or Leibovitz's L-15 medium) that has been supplemented with fetal bovine serum to a final concentration of 10%.
Effects of Compound-5B on proliferation and Id-1 expression in pancreatic cell lines. Compound-5B was next tested for inhibition of cell viability/proliferation in the three pancreatic cancer cell lines and two primary patient-derived cancer cell lines. Compound-5B inhibited cell viability/proliferation of all the cancer cell lines (Table 2). The culturing condition for the pancreatic cell lines was similar to those used in the breast cancer lines, with the exception of the primary patient-derived pancreatic cancer cell lines (PANC9 and PANC13). […] Cell proliferation of pancreatic cells in the presence of drug was measured using the CellTiter-Glo luminescent Assay and IC50 values were calculated (Table 2). […]
A general note: Cellular ATP, detected with luciferase, serves as a proxy for viable cell number.

The nature of data set [5]: Aqueous solubility (Eurofins ADME). The format is physicochemical. The procedure: as §1
Data set [6] can be described thus: Plasma protein binding (Eurofins ADME). The format is in vitro ADME. The procedure:
as §1

For data set [7], the system named is PANC13. Put plainly: CellTiter-Glo cell proliferation, patient-derived PANC13 tumorspheres. Conditions: Homo sapiens, 72 h, three days treatment, read-out: IC50 category. Format: cell-based. From the text:
Effects of Compound-5B on proliferation and Id-1 expression in pancreatic cell lines. Compound-5B was next tested for inhibition of cell viability/proliferation in the three pancreatic cancer cell lines and two primary patient-derived cancer cell lines. Compound-5B inhibited cell viability/proliferation of all the cancer cell lines (Table 2). The culturing condition for the pancreatic cell lines was similar to those used in the breast cancer lines, with the exception of the primary patient-derived pancreatic cancer cell lines (PANC9 and PANC13). For determining inhibition of cell proliferation in patient-derived pancreatic cancer cells were cultured in a T75 ultra low attachment flasks with DMEM/F12 media supplemented with B27, penicillin/streptomycin (10,000 u/mL), 50 µg/mL human epidermal growth factor (hEGF), 50 μg/mL human fibroblast growth factor, and 5 μg/mL heparin. Cells were plated in a 384-well plate and incubated for three days to promote the formation of tumorspheres. Cells were then treated with Compound-5B for three days. Cell proliferation of pancreatic cells in the presence of drug was measured using the CellTiter-Glo luminescent Assay and IC50 values were calculated (Table 2). The IC50 and corresponding 95% confidence limits (CL) were calculated using non-linear regression analysis.

A short description of data set [8]: IV pharmacokinetics. The format is in vivo. Conditions: 1 mpk.
Data set [9] relates to PANC-1 tumors. Kind of data set: PANC-1 subcutaneous xenograft in athymic nu/nu mice. Format: in vivo.
The test system of data set [10] is cannabinoid receptors. Put plainly: Cannabinoid receptor binding.
Description: Eurofin's Kinome scan assay was used to screen Compound-5B against 468 kinases at 1 μM and 10 μM concentrations. […] In order to understand any potential pharmacological cross reactivity, a known contributor to clinical adverse drug reactions Compound-5B was tested in SAFETY scan E/IC50 ELECT.
Data set [11] addresses T2, HRH2 (Histamine receptor) (Homo sapiens, UniProt P25021).
T2 construct: purchased Eurofin's
Kind of data set: SAFETY scan E/IC50 ELECT, HRH2. The format is biochemical. As to conditions: read-out: inhibition against HRH2 (mild).

Data set [12] deals with Id-1. Kind of data set: Id-1 protein expression in 4T1 breast cancer cells. The format is cell-based. Conditions: mouse 4T1 breast cancer cells. The procedure:
Quantitative Western analysis: Cells are cultured and treated in 6-well dishes. After the cells are washed twice with cold PBS, lysis buffer is added. The cells are then lysed by freezing for 10 min at −70° C. and then thawing at ambient temperature. The cell lysate is collected and the protein content is determined by using Bradford reagent. Equal amounts of protein are heated at 90° C. in Laemmli sample buffer which also included β-mercaptoethanol. The samples are then loaded onto a precast SDS-PAGE gel (Bio-Rad Laboratories, Hercules, CA). After which, proteins are then electroblotted onto an Immobilon membrane (Millipore, Billerica, MA) overnight at 2-4° C. […]
Antitumor activity of Compound-5B in vivo in breast cancer. […] We also determined whether it produced a similar effect in mouse 4T1 breast cancer cells. […] Lung metastasis % (total metastatic foci in treated/vehicle×100) was evaluated (FIG. 4B). […] Animals with established tumors (average volume of 100 mm^3) were randomized and treated once daily, 6 days a week, with i.p., injections of vehicle, or 1 mg/kg Compound-5B, tumors were measured once weekly by an operator blinded to the treatment groups. Changes in tumor volume (mm^3) were calculated as (length×width2)/2. *indicates statistically significant differences between vehicle and Compound-5B (p<0.05, Two-way ANOVA repeated measures, and Tukey's multiple comparisons test).

Data set [13] deals with T3, hERG (Homo sapiens, UniProt Q12809).
T3 construct: purchased Eurofins
Kind of data set: hERG channel inhibition. The format is biochemical. The procedure:
as §1
(In general: Block of hERG is tested as a sign of cardiac risk.)

T1 sequence (P11712 whole entry): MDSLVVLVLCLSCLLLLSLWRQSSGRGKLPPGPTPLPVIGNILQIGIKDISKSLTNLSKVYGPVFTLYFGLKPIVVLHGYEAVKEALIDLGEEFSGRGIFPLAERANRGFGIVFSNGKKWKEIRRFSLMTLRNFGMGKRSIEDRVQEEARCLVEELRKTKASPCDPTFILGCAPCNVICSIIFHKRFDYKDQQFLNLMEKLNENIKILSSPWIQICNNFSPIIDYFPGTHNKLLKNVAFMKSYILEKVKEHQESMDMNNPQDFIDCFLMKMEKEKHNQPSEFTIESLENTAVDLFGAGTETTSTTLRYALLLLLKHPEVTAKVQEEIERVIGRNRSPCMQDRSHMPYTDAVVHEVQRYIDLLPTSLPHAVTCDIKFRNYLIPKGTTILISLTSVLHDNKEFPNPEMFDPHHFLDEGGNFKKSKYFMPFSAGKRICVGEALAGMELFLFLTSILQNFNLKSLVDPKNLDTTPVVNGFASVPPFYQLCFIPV
T3 sequence (Q12809 whole entry): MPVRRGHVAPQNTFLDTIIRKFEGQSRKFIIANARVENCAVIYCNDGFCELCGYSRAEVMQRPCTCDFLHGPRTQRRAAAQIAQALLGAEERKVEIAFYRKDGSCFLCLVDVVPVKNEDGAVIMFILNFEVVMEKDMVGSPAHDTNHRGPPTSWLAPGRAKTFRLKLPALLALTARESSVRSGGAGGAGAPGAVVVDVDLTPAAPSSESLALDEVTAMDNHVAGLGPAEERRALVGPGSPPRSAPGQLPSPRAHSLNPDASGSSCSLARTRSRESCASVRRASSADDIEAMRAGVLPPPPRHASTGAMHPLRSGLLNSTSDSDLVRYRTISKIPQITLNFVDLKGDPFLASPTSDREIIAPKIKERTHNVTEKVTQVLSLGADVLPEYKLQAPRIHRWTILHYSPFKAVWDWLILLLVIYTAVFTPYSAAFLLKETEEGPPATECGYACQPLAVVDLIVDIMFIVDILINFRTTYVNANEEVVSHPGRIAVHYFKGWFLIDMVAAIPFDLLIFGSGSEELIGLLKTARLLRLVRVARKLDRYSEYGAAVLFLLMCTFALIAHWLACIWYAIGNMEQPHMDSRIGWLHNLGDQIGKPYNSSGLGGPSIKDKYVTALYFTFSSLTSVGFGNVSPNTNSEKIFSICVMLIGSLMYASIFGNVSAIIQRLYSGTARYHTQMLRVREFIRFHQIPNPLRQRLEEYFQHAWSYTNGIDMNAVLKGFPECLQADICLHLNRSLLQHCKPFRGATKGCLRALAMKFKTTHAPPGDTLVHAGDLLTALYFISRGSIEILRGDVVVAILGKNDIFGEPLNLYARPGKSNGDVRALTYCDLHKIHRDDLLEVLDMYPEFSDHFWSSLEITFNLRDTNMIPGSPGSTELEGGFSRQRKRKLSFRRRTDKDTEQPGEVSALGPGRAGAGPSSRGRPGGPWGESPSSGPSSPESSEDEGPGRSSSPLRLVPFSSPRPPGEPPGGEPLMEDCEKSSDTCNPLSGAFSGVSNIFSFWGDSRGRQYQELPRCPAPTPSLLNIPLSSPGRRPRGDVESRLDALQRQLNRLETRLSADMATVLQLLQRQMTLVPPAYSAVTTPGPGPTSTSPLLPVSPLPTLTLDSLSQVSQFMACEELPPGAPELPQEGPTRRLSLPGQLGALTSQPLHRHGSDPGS
T2 sequence (P25021 whole entry): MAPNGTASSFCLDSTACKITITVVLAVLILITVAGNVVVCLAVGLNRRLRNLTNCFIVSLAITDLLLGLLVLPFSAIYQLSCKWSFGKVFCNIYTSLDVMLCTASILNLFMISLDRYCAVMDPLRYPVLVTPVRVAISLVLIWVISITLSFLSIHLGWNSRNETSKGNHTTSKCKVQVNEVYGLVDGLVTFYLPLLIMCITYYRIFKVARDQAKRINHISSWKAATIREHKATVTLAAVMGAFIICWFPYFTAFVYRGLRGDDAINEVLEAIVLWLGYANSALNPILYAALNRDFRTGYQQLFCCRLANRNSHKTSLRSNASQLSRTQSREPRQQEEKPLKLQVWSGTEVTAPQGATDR

Regarding `CCCCCCC(C)(C)c1cc(O)c(C(=O)Nc2ccccc2)c(O)c1` [Compound 5B, 2,6-dihydroxy-4-(2-methyloctan-2-yl)-N-phenylbenzamide], the IC50 in [1] was less than 500 nM; in data set [4], 1000 to 5000 nM; in data set [7], less than 500 nM; in [11], 640 to 750 nM. In data set [2], the “inhibition of Id-1 expression” value was “able to effectively inhibit Id-1 expression”. The “inhibition of CYP2C9” value in data set [3] was “some inhibition”. Moreover, the aqueous solubility entry in data set [5] is on record as “low”. Further, the plasma protein binding entry in data set [6] was “high”. In addition, the clearance result in [8] is on record as “low”. In addition, the exposure result in data set [8] was “good”. For the same compound, the half-life entry in data set [8] is reported as “acceptable”. Also, the “weight loss (metric of drug toxicity)” value in [9] (PANC-1 tumor mice, Compound-5B 10 mg/kg i.p. daily, gemcitabine 50 mg/kg i.p. three times a week) was “no significant weight loss”. Further, the “growth of PANC-1 tumors” value in data set [9] (athymic nu/nu mice, 10 mg/kg i.p. once daily) was “reduced the growth of PANC-1 tumors as effectively as gemcitabine”. For the same compound, the “binding to the cannabinoid receptors” value in data set [10] is reported as “does not bind”. In [12], the Id-1 protein expression result is reported as “downregulation of Id-1 protein expression”. In addition, in data set [13], the “inhibition of cardiac channel hERG” value is on record as “no inhibition”.
